Measured values as given in patent publication US9999609B2, “Methods for treating or preventing fatigue” (SK Biopharmaceuticals Co., Ltd., priority 2009, dated 2018).

Test system: male adult Sprague Dawley rats
Test: Sleep-wake organization (EEG/EOG/EMG) in rats after acute i.p. administration
Format: in vivo
Settings: rats, mean ± s.e.m of 8 rats; for Duration Active wake / Duration Deep sleep / Duration Intemediate stage / Duration Light sleep / Duration Passive wake / Duration REM sleep: 16 h recording

Structure (SMILES): CC(N)Cc1ccccc1 (stereo not drawn) [Amphetamine, amphetamine]
- Duration Active wake (1 mg/kg i.p.): 382.4 ± 19.6 min
- Duration Deep sleep (1 mg/kg i.p.): 188.0 ± 19.6 min
- Duration Intemediate stage (1 mg/kg i.p.): 4.0 ± 19.6 min
- Duration Light sleep (1 mg/kg i.p.): 242.7 ± 19.6 min
- Duration Passive wake (1 mg/kg i.p.): 50.0 ± 19.6 min
- Duration REM sleep (1 mg/kg i.p.): 88.6 ± 19.6 min
- Latency ISWS (1 mg/kg i.p.): 140.6 ± 13.4 min
- Latency REM sleep (1 mg/kg i.p.): 208.6 ± 14.4 min
- Latency dSWS (1 mg/kg i.p.): 161.7 ± 5.3 min
- Shifts: Shift from ISWS to AW (1 mg/kg i.p.): 198.8 ± 50.1 number
- Shifts: Shift from ISWS to PW (1 mg/kg i.p.): 64.4 ± 30.5 number
- Shifts: Shift from REMS to AW (1 mg/kg i.p.): 66.5 ± 19.1 number
- Shifts: Shift from REMS to PW (1 mg/kg i.p.): 5.8 ± 4.8 number
- Shifts: Shift from dSWS to AW (1 mg/kg i.p.): 11.7 ± 7.2 number
- Shifts: Shift from dSWS to PW (1 mg/kg i.p.): 37.7 ± 30.0 number
- Duration Active wake (3 mg/kg i.p.): 441.8 ± 15.7 min
- Duration Deep sleep (3 mg/kg i.p.): 207.6 ± 17.7 min
- Duration Intemediate stage (3 mg/kg i.p.): 4.0 ± 1.0 min
- Duration Light sleep (3 mg/kg i.p.): 187.9 ± 23.9 min
- Duration Passive wake (3 mg/kg i.p.): 43.5 ± 4.4 min
- Duration REM sleep (3 mg/kg i.p.): 71.4 ± 4.1 min
- Latency ISWS (3 mg/kg i.p.): 228.2 ± 25.0 min
- Latency REM sleep (3 mg/kg i.p.): 338.6 ± 24.3 min
- Latency dSWS (3 mg/kg i.p.): 242.0 ± 19.4 min
- Shifts: Shift from ISWS to AW (3 mg/kg i.p.): 178.7 ± 46.6 number
- Shifts: Shift from ISWS to PW (3 mg/kg i.p.): 62.4 ± 26.1 number
- Shifts: Shift from REMS to AW (3 mg/kg i.p.): 59.3 ± 17.8 number
- Shifts: Shift from REMS to PW (3 mg/kg i.p.): 3.3 ± 2.6 number
- Shifts: Shift from dSWS to AW (3 mg/kg i.p.): 14.8 ± 7.8 number
- Shifts: Shift from dSWS to PW (3 mg/kg i.p.): 26.6 ± 16.8 number
- Duration Active wake (10 mg/kg i.p.): 498.7 ± 19.0 min
- Duration Deep sleep (10 mg/kg i.p.): 181.2 ± 22.0 min
- Duration Intemediate stage (10 mg/kg i.p.): 4.0 ± 1.0 min
- Duration Light sleep (10 mg/kg i.p.): 182.0 ± 26.3 min
- Duration Passive wake (10 mg/kg i.p.): 35.6 ± 4.7 min
- Duration REM sleep (10 mg/kg i.p.): 53.6 ± 5.0 min
- Latency ISWS (10 mg/kg i.p.): 284.7 ± 56.1 min
- Latency REM sleep (10 mg/kg i.p.): 440.8 ± 57.8 min
- Latency dSWS (10 mg/kg i.p.): 367.3 ± 5.5 min
- Shifts: Shift from ISWS to AW (10 mg/kg i.p.): 201.7 ± 66.1 number
- Shifts: Shift from ISWS to PW (10 mg/kg i.p.): 49.0 ± 25.5 number
- Shifts: Shift from REMS to AW (10 mg/kg i.p.): 50.0 ± 16.2 number
- Shifts: Shift from REMS to PW (10 mg/kg i.p.): 2.2 ± 1.9 number
- Shifts: Shift from dSWS to AW (10 mg/kg i.p.): 9.7 ± 5.9 number
- Shifts: Shift from dSWS to PW (10 mg/kg i.p.): 11.6 ± 8.9 number

Structure (SMILES): COC(=O)[C@H]1[C@@H](OC(=O)c2ccccc2)C[C@@H]2CC[C@H]1N2C [Cocaine, cocaine]
- Duration Active wake (1 mg/kg i.p.): 331.5 ± 41.5 min
- Duration Deep sleep (1 mg/kg i.p.): 162.9 ± 26.3 min
- Duration Intemediate stage (1 mg/kg i.p.): 6.7 ± 1.0 min
- Duration Light sleep (1 mg/kg i.p.): 293.2 ± 26.3 min
- Duration Passive wake (1 mg/kg i.p.): 69.8 ± 11.0 min
- Duration REM sleep (1 mg/kg i.p.): 84.2 ± 8.1 min
- Latency ISWS (1 mg/kg i.p.): 69.9 ± 51.2 min
- Latency REM sleep (1 mg/kg i.p.): 74.3 ± 12.1 min
- Latency dSWS (1 mg/kg i.p.): 79.3 ± 26.7 min
- Shifts: Shift from ISWS to AW (1 mg/kg i.p.): 184.1 ± 48.1 number
- Shifts: Shift from ISWS to PW (1 mg/kg i.p.): 128.6 ± 45.2 number
- Shifts: Shift from REMS to AW (1 mg/kg i.p.): 74.5 ± 21.5 number
- Shifts: Shift from REMS to PW (1 mg/kg i.p.): 17.0 ± 8.8 number
- Shifts: Shift from dSWS to AW (1 mg/kg i.p.): 10.1 ± 5.6 number
- Shifts: Shift from dSWS to PW (1 mg/kg i.p.): 66.6 ± 48.2 number
- Duration Active wake (3 mg/kg i.p.): 324.8 ± 18.3 min
- Duration Deep sleep (3 mg/kg i.p.): 172.6 ± 34.3 min
- Duration Intemediate stage (3 mg/kg i.p.): 5.7 ± 0.6 min
- Duration Light sleep (3 mg/kg i.p.): 303.2 ± 42.5 min
- Duration Passive wake (3 mg/kg i.p.): 66.7 ± 8.9 min
- Duration REM sleep (3 mg/kg i.p.): 76.7 ± 6.3 min
- Latency ISWS (3 mg/kg i.p.): 41.5 ± 9.2 min
- Latency REM sleep (3 mg/kg i.p.): 112.0 ± 12.2 min
- Latency dSWS (3 mg/kg i.p.): 68.6 ± 7.6 min
- Shifts: Shift from ISWS to AW (3 mg/kg i.p.): 218.5 ± 50.6 number
- Shifts: Shift from ISWS to PW (3 mg/kg i.p.): 142.2 ± 48.5 number
- Shifts: Shift from REMS to AW (3 mg/kg i.p.): 56.0 ± 16.4 number
- Shifts: Shift from REMS to PW (3 mg/kg i.p.): 10.7 ± 6.9 number
- Shifts: Shift from dSWS to AW (3 mg/kg i.p.): 10.2 ± 6.7 number
- Shifts: Shift from dSWS to PW (3 mg/kg i.p.): 64.5 ± 42.6 number
- Duration Active wake (10 mg/kg i.p.): 347.3 ± 16.5 min
- Duration Deep sleep (10 mg/kg i.p.): 171.9 ± 23.8 min
- Duration Intemediate stage (10 mg/kg i.p.): 6.3 ± 1.1 min
- Duration Light sleep (10 mg/kg i.p.): 294.6 ± 24.4 min
- Duration Passive wake (10 mg/kg i.p.): 55.0 ± 10.4 min
- Duration REM sleep (10 mg/kg i.p.): 74.7 ± 7.5 min
- Latency ISWS (10 mg/kg i.p.): 101.8 ± 6.9 min
- Latency REM sleep (10 mg/kg i.p.): 192.1 ± 18.5 min
- Latency dSWS (10 mg/kg i.p.): 138.8 ± 8.7 min
- Shifts: Shift from ISWS to AW (10 mg/kg i.p.): 201.2 ± 53.6 number
- Shifts: Shift from ISWS to PW (10 mg/kg i.p.): 132.6 ± 48.2 number
- Shifts: Shift from REMS to AW (10 mg/kg i.p.): 52.3 ± 16.5 number
- Shifts: Shift from REMS to PW (10 mg/kg i.p.): 9.2 ± 5.8 number
- Shifts: Shift from dSWS to AW (10 mg/kg i.p.): 10.4 ± 6.2 number
- Shifts: Shift from dSWS to PW (10 mg/kg i.p.): 37.6 ± 23.8 number
